A short description of data set [1]: Hydrolysis of the ethanolate in water (NMR in D2O, HPLC-MS). It is filed as physicochemical. To be noted: hydrolysis to the open free boronic acid form, compound 10. As for the experimental part:
The rapid conversion of compound 10e to compound 10 in water was confirmed by the similarity of a spectrum of 10e in D2O to a spectrum of 10 in D2O. When a sample of compound 10e was dissolved in D2O and the spectra immediately recorded (elapsed time <5 minutes), the spectra observed is identical to a spectra of compound 10 (the free boronic acid) plus ethanol (1:1 ratio). The spectrum of 10e in D2O was the same at 5 minutes and one hour after sample preparation, indicating the transformation was rapid and complete after a few minutes.
The NMR spectra (D2O) labeled A is compound 10 (free base) prepared from 11 as described in Example 2. The NMR spectra (D2O) labeled B is an analytical sample of compound 10e prepared as described above. The NMR spectra (D2O) labeled C is the sample from spectra B that has been lyophilized and redissolved in D2O.
Upon dissolution in 1:1 water/acetonitrile and immediate injection into an HPLC system, only a single peak is observed. The mass of this peak is consistent with compound 10.

A short description of data set [2]: Moisture sorption/desorption isotherm (TGA study, humidity uptake). It is filed as physicochemical. As for the experimental part: In the TGA study, a weighted amount of compound 10e was treated with increasing amounts of water vapor (increased humidity) and the impact of humidity on the weight of the sample was evaluated.
Data set [3] concerns Lewis Lung Carcinoma cells. Put plainly: Lewis Lung Carcinoma efficacy study (tumor volume over time). The data set is classed as in vivo. Conditions: single agent, dosed orally twice daily at 50, 100 or 200 mg/kg; C57BL/6 mice implanted with Lewis Lung Carcinoma cells; relative to control. The protocol:
Female C57.Bl/6 mice (n=40) were implanted subcutaneously with 1×10^6 Lewis Lung Carcinoma cells suspended in PBS. The day following implantation, mice were randomized into 4 groups of n=10 mice to receive the following treatments dosed orally twice daily until study end: 1) Vehicle (water); 2) Compound 10 at 50 mg/kg formulated in water; 3) Compound 10 at 100 mg/kg formulated in water; or 4) Compound 10 at 200 mg/kg formulated in water. Tumors were measured three times per week with digital calipers and tumor volumes calculated with the following formula: tumor volume (mm^3)=(a×b^2/2) where ‘b’ is the smallest diameter and ‘a’ is the largest perpendicular diameter. ***P-value <0.001, ****P-value <0.0001 (Two-sided T-test).

Entries after “also recorded” stand apart in the source; their conditions may differ.

Consider `CCOB1CCC[C@H]2CN(C(=O)[C@H](C)N)C[C@@]2(N)C(=O)O1` [Compound 10e, (6aS,9aR)-8-(L-alanyl)-9a-amino-3-ethoxyoctahydro-[1,2]oxaborocino[6,7-c]pyrrol-1(3H)-one], for which the “stability under physiological conditions or any other aqueous conditions” value in data set [1] is “rapidly hydrolyzes”.
With `C[C@H](N)C(=O)N1C[C@H](CCCB(O)O)[C@](N)(C(=O)O)C1` [Compound 10], in data set [2], the “hysteresis of sorption and desorption isotherms” value is on record as “minimal hysteresis”. Moreover, the hygroscopicity entry in data set [2] (as humidity is increased) is “absorbs increasing amounts of water as the humidity increases; also recorded: hygroscopic”. Moreover, the observed moisture uptake entry in data set [2] (at 90% relative humidity (RH)) was “over 70%”. Moreover, the “tumor growth (tumor volume over time)” value in data set [3] is reported as “slows tumor growth relative to control”.

The values above are taken from US12054501B2, “Compositions and methods for inhibiting arginase activity” (Precision Pharmaceuticals Inc., priority 2016, dated 2024).
